In PMC9229919, “4-Aminoquinoline-Based Adamantanes as Potential Anticholinesterase Agents in Symptomatic Treatment of Alzheimer’s Disease” (Pharmaceutics, 2022):
Where two headings read alike, the source gives them in different places.

How the values were obtained:
[1] = Reverse-phase thin-layer chromatographic lipophilicity (RF, RM0); format: physicochemical; settings: for RM0: intercept of RM = RM0 + bC; for b: slope of RM = RM0 + bC; for RF, Methanol/Water/Hydrochloric acid (conc.), mobile phase I: I = 90%MeOH/5%H2O/5%HCl; for RF, Dioxane/Water/Hydrochloric acid (conc.), mobile phase II: II = 80%Dioxane/15%H2O/5%HCl; for RF, Methanol/Water/Hydrochloric acid (conc.), mobile phase II: II = 85%MeOH/10%H2O/5%HCl; for RF, Acetone/Water/Hydrochloric acid (conc.), mobile phase III: III = 70%AC/25%H2O/5%HCl; for RF, Dioxane/Water/Hydrochloric acid (conc.), mobile phase III: III = 70%Dioxane/25%H2O/5%HCl; for RF, Methanol/Water/Hydrochloric acid (conc.), mobile phase III: III = 80%MeOH/15%H2O/5%HCl; for RF, Dioxane/Water/Hydrochloric acid (conc.), mobile phase IV: IV = 60%Dioxane/35%H2O/5%HCl; for RF, Acetone/Water/Hydrochloric acid (conc.), mobile phase IV: IV = 65%AC/30%H2O/5%HCl; for RF, Methanol/Water/Hydrochloric acid (conc.), mobile phase IV: IV = 75%MeOH/20%H2O/5%HCl; for RF, Acetone/Water/Hydrochloric acid (conc.), mobile phase IX: IX = 40%AC/55%H2O/5%HCl; for RF, Methanol/Water/Hydrochloric acid (conc.), mobile phase IX: IX = 50%MeOH/45%H2O/5%HCl; for RF, Dioxane/Water/Hydrochloric acid (conc.), mobile phase V: V = 50%Dioxane/45%H2O/5%HCl; for RF, Acetone/Water/Hydrochloric acid (conc.), mobile phase V: V = 60%AC/35%H2O/5%HCl; for RF, Methanol/Water/Hydrochloric acid (conc.), mobile phase V: V = 70%MeOH/25%H2O/5%HCl; for RF, Dioxane/Water/Hydrochloric acid (conc.), mobile phase VI: VI = 40%Dioxane/55%H2O/5%HCl; for RF, Acetone/Water/Hydrochloric acid (conc.), mobile phase VI: VI = 55%AC/40%H2O/5%HCl; for RF, Methanol/Water/Hydrochloric acid (conc.), mobile phase VI: VI = 65%MeOH/30%H2O/5%HCl; for RF, Acetone/Water/Hydrochloric acid (conc.), mobile phase VII: VII = 50%AC/45%H2O/5%HCl; for RF, Methanol/Water/Hydrochloric acid (conc.), mobile phase VII: VII = 60%MeOH/35%H2O/5%HCl; for RF, Acetone/Water/Hydrochloric acid (conc.), mobile phase VIII: VIII = 45%AC/50%H2O/5%HCl; for RF, Methanol/Water/Hydrochloric acid (conc.), mobile phase VIII: VIII = 55%MeOH/40%H2O/5%HCl
Summary of the method: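 Lipophilicity from RP-TLC retention at 22±2 °C over a 4.5 cm development distance. Eluents: organic modifier (methanol, acetone or dioxane), water and hydrochloric acid, methanol stepped by 10%. RM0 obtained from RF.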

recombinant human AChE = molecular target: T1, recombinant human AChE (Homo sapiens, UniProt P22303); assay: biochemical; format: biochemical; settings: for IS: IS = Ki(BChE)/Ki(AChE), IS > 1 selective to AChE
T1 construct: gift of Dr Florian Nachon (Armed Forces Biomedical Research Institute, Brétigny-sur-Orge, France)
T1 sequence (P22303 32-614): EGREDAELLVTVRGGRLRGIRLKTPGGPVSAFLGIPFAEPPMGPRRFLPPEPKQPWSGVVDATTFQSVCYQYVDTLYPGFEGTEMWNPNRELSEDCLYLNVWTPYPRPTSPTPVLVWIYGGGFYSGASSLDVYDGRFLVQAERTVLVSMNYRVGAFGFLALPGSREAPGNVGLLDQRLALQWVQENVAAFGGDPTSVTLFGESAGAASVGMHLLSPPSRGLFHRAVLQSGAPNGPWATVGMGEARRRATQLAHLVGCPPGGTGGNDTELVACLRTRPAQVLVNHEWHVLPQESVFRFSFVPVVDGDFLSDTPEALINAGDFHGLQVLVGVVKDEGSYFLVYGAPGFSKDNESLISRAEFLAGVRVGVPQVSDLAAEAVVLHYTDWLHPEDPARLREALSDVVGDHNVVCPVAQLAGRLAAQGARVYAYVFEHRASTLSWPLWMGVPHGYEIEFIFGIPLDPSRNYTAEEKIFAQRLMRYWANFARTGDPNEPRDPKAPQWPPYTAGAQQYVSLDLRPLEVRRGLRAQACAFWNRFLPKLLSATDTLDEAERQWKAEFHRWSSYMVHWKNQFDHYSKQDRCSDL
Summary of the method: (§1)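 Modified Ellman assay with acetylthiocholine and DTNB in 0.1 M sodium phosphate pH 7.4 (enzymes diluted with 0.1% BSA), ≤0.2% DMSO, 25 °C. At least three inhibitor concentrations per substrate level; Ki,app from Hunter–Downs equation, Ki from y-intercept and inhibition type from Ki,app vs [S].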

purified human BChE = molecular target: T2, purified human BChE (Homo sapiens, UniProt P06276); assay: biochemical; format: biochemical; settings: ± standard error, 25 °C, ATCh substrate
T2 construct: possibly also a gift of Dr Florian Nachon (the sentence is ambiguous)
T2 sequence (P06276 29-602): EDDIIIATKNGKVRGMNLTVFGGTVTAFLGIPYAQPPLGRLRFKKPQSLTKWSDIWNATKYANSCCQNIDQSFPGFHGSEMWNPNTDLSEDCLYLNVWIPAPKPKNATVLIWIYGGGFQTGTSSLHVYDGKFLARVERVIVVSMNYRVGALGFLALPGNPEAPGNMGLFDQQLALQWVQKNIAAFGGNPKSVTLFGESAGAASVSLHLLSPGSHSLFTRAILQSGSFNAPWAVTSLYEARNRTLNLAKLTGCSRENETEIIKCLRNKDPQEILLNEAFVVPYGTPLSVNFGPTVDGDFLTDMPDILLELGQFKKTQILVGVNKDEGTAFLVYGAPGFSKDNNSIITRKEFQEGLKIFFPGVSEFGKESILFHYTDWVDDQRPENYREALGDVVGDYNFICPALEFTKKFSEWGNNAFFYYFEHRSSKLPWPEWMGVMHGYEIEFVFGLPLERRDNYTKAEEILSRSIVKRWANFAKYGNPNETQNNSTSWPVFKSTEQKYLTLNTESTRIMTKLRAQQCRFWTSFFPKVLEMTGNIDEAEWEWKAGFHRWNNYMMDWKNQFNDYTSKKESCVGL
Summary of the method: as §1

[2] = Ferric reducing antioxidant power (FRAP) assay; settings: mean ± standard error of three experiments;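 further: expressed as µM Fe2+ equivalents from an FeSO4·7H2O standard curve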
Summary of the method: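 Ferric-TPTZ reduction measured by absorbance at 593 nm after 60 min at 37 °C in pH 3.6 acetate-buffered TPTZ/FeCl3 reagent, with test compounds at 10 and 100 µM. FRAP values calculated from an Fe2SO4·7H2O standard curve. Data from three independent experiments.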

[3] = Acetone/Water/Hydrochloric acid (conc.)
[4] = Dioxane/Water/Hydrochloric acid (conc.)
[5] = Methanol/Water/Hydrochloric acid (conc.)
[6] = ± standard error, 25 °C, ATCh substrate, read-out: Ki AChE

Row | SMILES | RM0 [1, 3] | b [1, 3] | RM0 [1, 4] | b [1, 4] | RM0 [1, 5] | b [1, 5] | RF, Methanol/Water/Hydrochloric acid (conc.), mobile phase I ([1]; RP-18 silica) | RF, Dioxane/Water/Hydrochloric acid (conc.), mobile phase II ([1]; RP-18 silica) | RF, Methanol/Water/Hydrochloric acid (conc.), mobile phase II ([1]; RP-18 silica) | RF, Acetone/Water/Hydrochloric acid (conc.), mobile phase III ([1]; RP-18 silica) | RF, Dioxane/Water/Hydrochloric acid (conc.), mobile phase III ([1]; RP-18 silica) | RF, Methanol/Water/Hydrochloric acid (conc.), mobile phase III ([1]; RP-18 silica) | RF, Dioxane/Water/Hydrochloric acid (conc.), mobile phase IV ([1]; RP-18 silica) | RF, Acetone/Water/Hydrochloric acid (conc.), mobile phase IV ([1]; RP-18 silica) | RF, Methanol/Water/Hydrochloric acid (conc.), mobile phase IV ([1]; RP-18 silica) | RF, Acetone/Water/Hydrochloric acid (conc.), mobile phase IX ([1]; RP-18 silica) | RF, Methanol/Water/Hydrochloric acid (conc.), mobile phase IX ([1]; RP-18 silica) | RF, Dioxane/Water/Hydrochloric acid (conc.), mobile phase V ([1]; RP-18 silica) | RF, Acetone/Water/Hydrochloric acid (conc.), mobile phase V ([1]; RP-18 silica) | RF, Methanol/Water/Hydrochloric acid (conc.), mobile phase V ([1]; RP-18 silica) | further results
1 | Clc1ccc2c(NCCCCCN(CCC34CC5CC(CC(C5)C3)C4)CCC34CC5CC(CC(C5)C3)C4)ccnc2c1 [Compound 11] | 3.759 | 4.955 | 2.01 | 2.862 | 5.504 | 5.94 | 0.43 | 0.64 | 0.31 | 0.32 | 0.58 | 0.09 | 0.47 | 0.27 | 0.09 | 0 | 0 | 0.13 | 0.12 | 0.05 | RF, Acetone/Water/Hydrochloric acid (conc.), mobile phase I ([1]; RP-18 silica, I = 80%AC/15%H2O/5%HCl): 0.58; RF, Dioxane/Water/Hydrochloric acid (conc.), mobile phase I ([1]; RP-18 silica, I = 90%Dioxane/5%H2O/5%HCl): 0.74; RF, Acetone/Water/Hydrochloric acid (conc.), mobile phase II ([1]; RP-18 silica, II = 75%AC/20%H2O/5%HCl): 0.52; RF, Dioxane/Water/Hydrochloric acid (conc.), mobile phase VI ([1]; RP-18 silica): 0; RF, Acetone/Water/Hydrochloric acid (conc.), mobile phase VI ([1]; RP-18 silica): 0.08; RF, Methanol/Water/Hydrochloric acid (conc.), mobile phase VI ([1]; RP-18 silica): 0.01; RF, Acetone/Water/Hydrochloric acid (conc.), mobile phase VII ([1]; RP-18 silica): 0; RF, Methanol/Water/Hydrochloric acid (conc.), mobile phase VII ([1]; RP-18 silica): 0; RF, Acetone/Water/Hydrochloric acid (conc.), mobile phase VIII ([1]; RP-18 silica): 0; RF, Methanol/Water/Hydrochloric acid (conc.), mobile phase VIII ([1]; RP-18 silica): 0; IS (recombinant human AChE): 2.5; Ki (recombinant human AChE; [6]): 0.33 ± 0.01 µM; Ki (purified human BChE; read-out: Ki BChE): 820 ± 40 nM; FRAP ([2]; 10 µM compound): 5.3 ± 1.4 µM; FRAP ([2]; 100 µM compound): 23 ± 4 µM
2 | CC(CCNCC12CC3CC(CC(C3)C1)C2)Nc1ccnc2cc(Cl)ccc12 (centres unmarked) [Compound 12] | 1.835 | 3.007 | 0.75 | 1.647 | 2.4121 | 3.174 | 0.71 | 0.75 | 0.66 | 0.62 | 0.72 | 0.53 | 0.72 | 0.58 | 0.5 | 0.15 | 0.1 | 0.54 | 0.48 | 0.44 | RF, Dioxane/Water/Hydrochloric acid (conc.), mobile phase VI ([1]; RP-18 silica): 0.4; RF, Acetone/Water/Hydrochloric acid (conc.), mobile phase VI ([1]; RP-18 silica): 0.41; RF, Methanol/Water/Hydrochloric acid (conc.), mobile phase VI ([1]; RP-18 silica): 0.36; RF, Acetone/Water/Hydrochloric acid (conc.), mobile phase VII ([1]; RP-18 silica): 0.34; RF, Methanol/Water/Hydrochloric acid (conc.), mobile phase VII ([1]; RP-18 silica): 0.25; RF, Acetone/Water/Hydrochloric acid (conc.), mobile phase VIII ([1]; RP-18 silica): 0.29; RF, Methanol/Water/Hydrochloric acid (conc.), mobile phase VIII ([1]; RP-18 silica): 0.18; IS (recombinant human AChE): 2.1; Ki (recombinant human AChE; log (Ki/µM AChE), read-out: Y Measured 1 log(ki)Ache (converted)): 0.56 µM; Ki (recombinant human AChE; [6]): 0.56 ± 0.02 µM; Ki (purified human BChE; Ki BChE): 1200 ± 100 nM; FRAP ([2]; 10 µM compound): 24.2 ± 0.0 µM; FRAP ([2]; 100 µM compound): 37 ± 7 µM
